Assays:
CDK9/CycT1 = biological target: T1, CDK9/CycT1 (Homo sapiens, UniProt P50750); experiment: CDK9/CycT1 kinase assay (TR-FRET); assay type: biochemical; conditions: ATP 10 μM
T1 construct: Recombinant full-length His-tagged human CDK9 and CycT1; His; purchased Invitrogen PV4131; host or cells: insect cells
Source text: CDK9/CycT1-inhibitory activity of compounds of the present invention was quantified employing the CDK9/CycT1 TR-FRET assay as described in the following paragraphs.
Recombinant full-length His-tagged human CDK9 and CycT1, expressed in insect cells and purified by Ni-NTA affinity chromatography, were purchased from Invitrogen (catalogue number PV4131). A biotinylated peptide biotin-Ttds-[…] (C-terminus in amide form), which can be purchased from e.g the company JERINI Peptide Technologies (Berlin, Germany), was used as a substrate for the kinase reaction.
(§1) For the assay, 50 nl of a 100-fold concentrated solution of the test compound in DMSO was pipetted into a well of a black low-volume 384-well microtiter plate (Greiner Bio-One, Frickenhausen, Germany), 2 μl of a solution of CDK9/CycT1 in aqueous assay buffer [50 mM Tris/HCl pH 8.0], 10 mM MgCl2, 1.0 mM dithiothreitol, 0.1 mM sodium ortho-vanadate, 0.01% (v/v) Nonidet-P40 (Sigma)] were added. The mixture was incubated at 22° C. for 15 min to allow pre-binding of the test compounds to the enzyme before the start of the kinase reaction. […] The resulting mixture was incubated at 22° C. for a reaction time of 25 minutes. The concentration of CDK9/CycT1 was adjusted depending of the activity of the enzyme lot and was chosen appropriately for measurements in the linear range of the assay. Typical concentrations were in the range of 1 μg/ml. The reaction was stopped by the addition of 5 μl of a solution of TR-FRET detection reagents (0.2 μM streptavidine-XL and 1 nM anti-RB(pSer807/pSer811)-antibody from BD Pharmingen [#558389] and 1.2 nM LANCE EU-W1024 labeled anti-mouse IgG antibody [Perkin-Elmer, product no. AD0077]) in an aqueous EDTA-solution (100 mM EDTA, 0.2% (w/v) bovine serum albumin in 100 mM HEPES/NaOH, pH 7.0).
(§2) The resulting mixture was incubated at 22° C. for one hour to allow the formation of a complex between the phosphorylated biotinylated peptide and the detection reagents. Subsequently, the amount of phosphorylated substrate was evaluated by measurement of the resonance energy transfer from the Eu-chelate to the streptavidine-XL. Therefore, the fluorescence emissions at 620 nm and 665 nm after excitation at 350 nm were measured in a HTRF reader, e.g. a Rubystar (BMG Labtechnologies, Offenburg, Germany) or a Viewlux (Perkin-Elmer). The ratio of the emissions at 665 nm and at […] was taken as a measure for the amounts of phosphorylated substrate. The data were normalised, i.e. enzyme reaction without inhibitor corresponds to 0% inhibition, and all other assay components in the absence of the enzyme correspond to 100% inhibition. IC50 values were calculated by a 4-parameter fit using in-house software.

CDK2/CycE = biological target: T2, CDK2/CycE (Homo sapiens, UniProt P24941); experiment: CDK2/CycE kinase assay (TR-FRET); assay type: biochemical; conditions: ATP 10 μM
T2 construct: GST; purchased ProQinase GmbH (Freiburg, Germany); host or cells: insect cells (Sf-9)
Source text: CDK2/CycE-inhibitory activity of compounds of the present invention was quantified employing the CDK2/CycE TR-FRET assay as described in the following paragraphs.
Recombinant fusion proteins of glutathione S-transferase (GST) and human CDK2 and of GST and human CycE, expressed in insect cells (Sf-9) and purified by glutathion-sepharose affinity chromatography, were purchased from ProQinase GmbH (Freiburg, Germany). A biotinylated peptide biotin-Ttds-[…] (C-terminus in amide form), which can be purchased from e.g the company JERINI Peptide Technologies (Berlin, Germany), was used as a substrate for the kinase reaction.
as §1, with “of CDK2/CycE” for “of CDK9/CycT1”, “for” for “for a reaction time of”, “depending on” for “depending of”, “of 130 ng/ml.” for “of 1 μg/ml.”
as §2, with “measuring” for “measurement of”, “high time-resolved fluorometry (HTRF)” for “HTRF”

T1 sequence (P50750 whole entry): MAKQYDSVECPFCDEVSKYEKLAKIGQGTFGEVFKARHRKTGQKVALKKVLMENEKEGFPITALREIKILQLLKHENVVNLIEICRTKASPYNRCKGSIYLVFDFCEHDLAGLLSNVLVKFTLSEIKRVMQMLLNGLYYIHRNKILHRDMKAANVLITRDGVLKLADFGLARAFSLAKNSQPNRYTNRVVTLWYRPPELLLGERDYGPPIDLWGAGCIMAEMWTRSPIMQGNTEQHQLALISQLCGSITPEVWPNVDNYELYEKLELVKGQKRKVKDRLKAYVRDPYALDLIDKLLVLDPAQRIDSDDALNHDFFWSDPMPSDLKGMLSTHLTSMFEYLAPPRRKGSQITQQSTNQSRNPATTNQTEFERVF
T1 sequence (O60563 whole entry partner): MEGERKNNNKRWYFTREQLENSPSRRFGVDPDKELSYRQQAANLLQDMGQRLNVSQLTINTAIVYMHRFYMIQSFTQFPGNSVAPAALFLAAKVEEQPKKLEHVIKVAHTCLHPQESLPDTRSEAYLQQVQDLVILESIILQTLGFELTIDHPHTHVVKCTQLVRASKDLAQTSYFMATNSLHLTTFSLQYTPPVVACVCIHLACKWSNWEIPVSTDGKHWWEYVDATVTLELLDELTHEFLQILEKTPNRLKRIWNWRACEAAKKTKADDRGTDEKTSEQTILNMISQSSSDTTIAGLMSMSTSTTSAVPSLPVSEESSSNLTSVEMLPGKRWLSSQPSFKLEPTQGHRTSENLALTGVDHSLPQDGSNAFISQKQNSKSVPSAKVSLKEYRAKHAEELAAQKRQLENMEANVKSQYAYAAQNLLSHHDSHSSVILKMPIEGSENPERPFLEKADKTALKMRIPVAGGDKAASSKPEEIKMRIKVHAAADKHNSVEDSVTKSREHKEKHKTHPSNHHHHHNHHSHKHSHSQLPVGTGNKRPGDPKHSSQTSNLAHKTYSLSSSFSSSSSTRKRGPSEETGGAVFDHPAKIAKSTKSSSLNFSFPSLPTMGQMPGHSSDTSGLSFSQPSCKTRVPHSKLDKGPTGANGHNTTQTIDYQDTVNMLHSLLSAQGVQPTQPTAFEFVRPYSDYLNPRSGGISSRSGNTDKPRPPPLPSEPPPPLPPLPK

IC50 (CDK9/CycT1; values in nM) | IC50 (CDK2/CycE; values in nM) | IC50 (CDK9/CycT1; values given in μM) | IC50 (CDK2/CycE; values given in μM) | Compound
10 nM | 450 nM |  |  | COc1ccccc1-c1ncnc(Nc2cccc(S(N)(=O)=O)c2)n1 [Compound C1, 3-[(4-(2-Methoxyphenyl)-1,3,5-triazin-2-yl)amino]benzenesulfonamide]
 |  | 8400 nM | 14000 nM | NC(=O)c1ccc(Nc2ncnc(-c3ccccc3NC(=O)c3ccccc3)n2)cc1 [Ref5, 4-[4-(2-Benzoylaminophenyl)-[1,3,5]triazin-2-ylamino]benzamide, reference compound]
 |  | > 20000 nM | > 20000 nM | Cc1ccc(Cl)cc1-c1ncnc(Nc2ccc(Cl)cc2)n1 [Ref3, [6-(5-Chloro-2-methyl-phenyl)-[1,3,5]triazin-4-yl]-(4-chloro-phenyl)-amine, reference compound]
370 nM |  |  | 12000 nM | COc1c(-c2ncnc(Nc3cccc(CS(N)(=O)=O)c3)n2)ccc(F)c1F [Compound U6, 1-(3-{[4-(3,4-difluoro-2-methoxyphenyl)-1,3,5-triazin-2-yl]amino}phenyl)methanesulfonamide]
 |  | 15000 nM | 15000 nM | NS(=O)(=O)Cc1cccc(Nc2ncnc(-c3ccc(F)cc3C(F)(F)F)n2)c1 [Compound U1, 1-[3-({4-[4-fluoro-2-(trifluoromethyl)phenyl]-1,3,5-triazin-2-yl}amino)phenyl]methanesulfonamide]
 |  | 3600 nM | 3000 nM | CC(=O)Nc1cc(F)ccc1-c1ncnc(Nc2cccc(CS(N)(=O)=O)c2)n1 [Compound U4, N-[5-fluoro-2-(4-{[3-(sulfamoylmethyl)phenyl]amino}-1,3,5-triazin-2-yl)phenyl]acetamide]
34 nM |  |  | 1600 nM | NS(=O)(=O)Cc1cccc(Nc2ncnc(-c3ccc(F)cc3OCC3CC3)n2)c1 [Compound U5, 1-[3-({4-[2-(cyclopropylmethoxy)-4-fluorophenyl]-1,3,5-triazin-2-yl}amino)phenyl]methanesulfonamide]

— patent US20130079345A1, “[…] ACTIVE DISUBSTITUTED TRIAZINE DERIVATIVES” (BAYER INTELLECTUAL PROPERTY GMBH, priority 2010, published 2013)
